We go through 28 compounds from patent US11136313B2, “Compounds, compositions, and methods for modulating CFTR” (Proteostasis Therapeutics, Inc., priority 2015, dated 2021).

Molecules are shown by their SMILES.

For this assay, the target named is T1, ΔF508-CFTR (Homo sapiens, UniProt P13569, DEL508-508).
T1 construct: Primary lung epithelial cells homozygous for the Cystic Fibrosis-causing ΔF508 mutation were differentiated for a minimum of 4 weeks; endogenous in cells; host or cells: primary lung epithelial cells (hBE) homozygous for ΔF508, differentiated at an air-liquid interface
The assay is described as follows: hBE equivalent current (Ieq) assay: AUC of equivalent chloride current after forskolin/VX-770 in primary lung epithelial cells homozygous for ΔF508. The conditions noted are these: relative to CFTR amplifier (Compound A)+VX-809 (3 uM), compound at 10 uM and Compound A at 3 uM, 24 h treatment. Type of assay: cell-based. An outline of the steps: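 Readout is the increase over vehicle in equivalent chloride current AUC from forskolin/VX-770 addition to bumetanide, measured by current clamp at 36 °C after benzamil block of ENaC. Cultures were homozygous ΔF508 primary lung epithelium grown ≥4 weeks at air-liquid interface and exposed basolaterally to compound for 24 h.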

T1 sequence (P13569 with tags, fused parts or gaps DEL508-508): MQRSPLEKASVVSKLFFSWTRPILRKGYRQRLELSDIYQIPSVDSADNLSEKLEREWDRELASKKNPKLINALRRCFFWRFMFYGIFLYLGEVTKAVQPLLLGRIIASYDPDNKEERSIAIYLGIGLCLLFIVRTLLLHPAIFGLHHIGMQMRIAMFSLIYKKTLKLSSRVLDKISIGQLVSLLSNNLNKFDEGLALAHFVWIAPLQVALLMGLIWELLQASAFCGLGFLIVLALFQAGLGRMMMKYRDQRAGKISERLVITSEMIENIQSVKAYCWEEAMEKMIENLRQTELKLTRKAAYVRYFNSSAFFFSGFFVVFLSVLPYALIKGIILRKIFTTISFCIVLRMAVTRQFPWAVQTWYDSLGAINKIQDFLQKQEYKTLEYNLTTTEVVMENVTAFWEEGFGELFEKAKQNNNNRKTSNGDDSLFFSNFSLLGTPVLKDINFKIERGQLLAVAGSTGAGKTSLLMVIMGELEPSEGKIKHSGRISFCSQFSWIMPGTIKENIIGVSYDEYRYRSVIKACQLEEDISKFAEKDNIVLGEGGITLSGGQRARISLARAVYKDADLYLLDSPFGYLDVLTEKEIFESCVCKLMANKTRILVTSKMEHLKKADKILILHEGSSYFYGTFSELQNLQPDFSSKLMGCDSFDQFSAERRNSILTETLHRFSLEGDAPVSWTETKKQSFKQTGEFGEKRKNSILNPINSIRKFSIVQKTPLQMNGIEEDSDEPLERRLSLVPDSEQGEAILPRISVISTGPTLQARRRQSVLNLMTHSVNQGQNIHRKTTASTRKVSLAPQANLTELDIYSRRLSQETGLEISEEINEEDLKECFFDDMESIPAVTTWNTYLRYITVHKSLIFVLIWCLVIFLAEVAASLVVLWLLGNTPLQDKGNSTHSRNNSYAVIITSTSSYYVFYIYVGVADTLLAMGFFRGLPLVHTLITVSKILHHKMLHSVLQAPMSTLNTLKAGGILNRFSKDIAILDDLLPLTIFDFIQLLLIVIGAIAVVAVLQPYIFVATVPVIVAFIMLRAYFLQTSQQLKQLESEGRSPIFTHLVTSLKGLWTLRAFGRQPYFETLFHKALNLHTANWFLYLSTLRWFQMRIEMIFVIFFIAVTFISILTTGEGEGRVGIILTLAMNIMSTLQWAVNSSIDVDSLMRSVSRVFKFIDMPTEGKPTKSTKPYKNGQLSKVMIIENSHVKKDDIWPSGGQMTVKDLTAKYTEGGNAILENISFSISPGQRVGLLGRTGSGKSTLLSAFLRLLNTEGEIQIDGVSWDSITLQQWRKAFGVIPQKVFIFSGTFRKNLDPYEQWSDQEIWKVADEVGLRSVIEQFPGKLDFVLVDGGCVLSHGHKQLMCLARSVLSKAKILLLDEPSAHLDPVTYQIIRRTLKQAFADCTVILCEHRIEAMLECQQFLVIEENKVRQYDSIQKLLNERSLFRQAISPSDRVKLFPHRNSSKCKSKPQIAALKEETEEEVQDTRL

In the case of `CNS(=O)(=O)c1ccc([C@@H](C)Oc2ccc(C)c3nc(-c4oc5ccccc5c4C)cc(C(=O)[O-])c23)cc1.[Na+]` [Compound 239, Sodium 8-Methyl-2-(3-methyl-l-benzofuran-2-yl)-5-[(1R)-1-[4-(methylsulfamoyl)phenyl]ethoxy]quinoline-4-carboxylate], the Activity entry was “++ (activity>50% of CFTR amplifier+VX-809 (3 uM) with compound at 10 uM and Compound A at 3 uM)”.

As to `CCc1ccc(O[C@@H](C)c2ccccc2)c2c(C(=O)O)cc(-c3csc4ccccc34)nc12` [Compound 166], the Activity result is “++ (activity>50% of CFTR amplifier+VX-809 (3 uM) with compound at 10 uM and Compound A at 3 uM)”.

For the compound `Cc1c(-c2cc(C(=O)[O-])c3c(OC4CC(C)(C)C4)ccc(C)c3n2)sc2ccccc12.[Na+]` [Compound 318], the Activity entry is “++ (activity>50% of CFTR amplifier+VX-809 (3 uM) with compound at 10 uM and Compound A at 3 uM)”.

For `CO[C@]1(C)CC[C@H](COc2ccc(C)c3nc(-c4sc5ccccc5c4C)cc(C(=O)[O-])c23)CC1.[Na+]` [Compound 326], the Activity entry was “++ (activity>50% of CFTR amplifier+VX-809 (3 uM) with compound at 10 uM and Compound A at 3 uM)”.

`Cc1c(-c2cc(CC(=O)O)c3c(OC(C)c4ccccc4)ccc(C)c3n2)oc2ccccc12` (stereo not shown) [Compound 276, 2-[8-Methyl-2-(3-methyl-1-benzofuran-2-yl)-5-(1-phenylethoxy)quinolin-4-yl]acetic Acid]: the Activity result is “++ (activity>50% of CFTR amplifier+VX-809 (3 uM) with compound at 10 uM and Compound A at 3 uM)”.

For the compound `Cc1c(-c2cc(C(=O)[O-])c3c(OCc4cccc5c4OCO5)ccc(C)c3n2)sc2ccccc12.[Na+]` [Compound 296], the Activity entry was “++ (activity>50% of CFTR amplifier+VX-809 (3 uM) with compound at 10 uM and Compound A at 3 uM)”.

`Cc1c(-c2cc(C(=O)[O-])c3c(O[C@@H](C)c4ccc(S(C)(=O)=O)cc4)ccc(C)c3n2)sc2ccccc12.[Na+]` [Compound 266]: the Activity entry is “++ (activity>50% of CFTR amplifier+VX-809 (3 uM) with compound at 10 uM and Compound A at 3 uM)”.

For `CCc1ccc(OCc2ccccc2)c2c(C(=O)O)cc(-c3sc4ccccc4c3C)nc12` [Compound 133, 5-(Benzyloxy)-8-ethyl-2-(3-methyl-1-benzothiophen-2-yl)quinoline-4-carboxylic acid], the Activity result was “++ (activity>50% of CFTR amplifier+VX-809 (3 uM) with compound at 10 uM and Compound A at 3 uM)”.

Turning to `Cc1c(-c2cc(C(=O)O)c3cc(C(C)(C)C)cc(C)c3n2)oc2ccccc12` [Compound 27, 6-tert-Butyl-8-methyl-2-(3-methyl-1-benzofuran-2-yl)quinoline-4-carboxylic acid], the Activity entry was “++ (activity>50% of CFTR amplifier+VX-809 (3 uM) with compound at 10 uM and Compound A at 3 uM)”.

With `CCc1ccc(OC(CC)c2ccccc2)c2c(C(=O)O)cc(-c3csc4ccccc34)nc12` (stereo in doubt) [Compound 185, 2-(1-Benzothiophen-3-yl)-8-ethyl-5-[(1S)-1-phenylpropoxy]quinoline-4-carboxylic acid], the Activity result was “++ (activity>50% of CFTR amplifier+VX-809 (3 uM) with compound at 10 uM and Compound A at 3 uM)”.

Turning to `Cc1c(-c2cc(C(=O)[O-])c3c(OC4CC(C)(C)C4)ccc(C)c3n2)oc2ccccc12.[Na+]` [Compound 368], the Activity result is “++ (activity>50% of CFTR amplifier+VX-809 (3 uM) with compound at 10 uM and Compound A at 3 uM)”.

On to `Cc1ccc2oc(-c3cc(C(=O)O)c4c(C)ccc(C)c4n3)c(C)c2c1` [Compound 127, 2-(3,5-Dimethylbenzofuran-2-yl)-5,8-dimethylquinoline-4-carboxylic acid], for which the Activity entry is “++ (activity>50% of CFTR amplifier+VX-809 (3 uM) with compound at 10 uM and Compound A at 3 uM)”.

Turning to `Cc1c(-c2cc(C(=O)O)c3c(OCc4ccccc4)ccc(C)c3n2)oc2ccccc12` [Compound 30, 5-(benzyloxy)-8-methyl-2-(3-methyl-1-benzofuran-2-yl)quinoline-4-carboxylic acid], the Activity result is “++ (activity>50% of CFTR amplifier+VX-809 (3 uM) with compound at 10 uM and Compound A at 3 uM)”.

Take `Cc1cc(C)c2nc(-c3c(C)oc4ccccc34)cc(C(=O)O)c2c1` [Compound 5, 6,8-Dimethyl-2-(2-methyl-1-benzofuran-3-yl)quinoline-4-carboxylic acid]: the Activity result is “+ (activity<50% of an CFTR amplifier (Compound A)+VX-809 (3 uM) with compound at 10 uM and Compound A at 3 uM)”.

As to `Cc1c(-c2cc(C(=O)[O-])c3c(OC4CC(C)(C)OC(C)(C)C4)ccc(C)c3n2)sc2ccccc12.[Na+]` [Compound 333], the Activity entry was “++ (activity>50% of CFTR amplifier+VX-809 (3 uM) with compound at 10 uM and Compound A at 3 uM)”.

As to `CCc1ccc(O[C@@H]2CCC[C@H](C)C2)c2c(C(=O)[O-])cc(-c3sc4ccccc4c3C)nc12.[Na+]` [Compound 214, Sodium 8-Ethyl-2-(3-methyl-1-benzothiophen-2-yl)-5-[[(1R,3S)-3-methylcyclohexyl]oxy]quinoline-4-carboxylate], the Activity result was “++ (activity>50% of CFTR amplifier+VX-809 (3 uM) with compound at 10 uM and Compound A at 3 uM)”.

With `CCc1cc(C)c2nc(-c3oc4ccccc4c3C)cc(C(=O)O)c2c1` [Compound 26, 6-Ethyl-8-methyl-2-(3-methyl-1-benzofuran-2-yl)quinoline-4-carboxylic Acid], the Activity entry is “++ (activity>50% of CFTR amplifier+VX-809 (3 uM) with compound at 10 uM and Compound A at 3 uM)”.

In the case of `Cc1oc2ccccc2c1-c1cc(C(=O)O)c2c(OCc3ccccc3)ccc(C3CC3)c2n1` [Compound 106, 5-(Benzyloxy)-8-cyclopropyl-2-(2-methyl-1-benzofuran-3-yl)quinoline-4-carboxylic acid], the Activity result is “++ (activity>50% of CFTR amplifier+VX-809 (3 uM) with compound at 10 uM and Compound A at 3 uM)”.

Turning to `Cc1c(-c2cc(C(=O)[O-])c3c(OC[C@H]4CC[C@@](C)(O)CC4)ccc(C)c3n2)oc2ccccc12.[Na+]` [Compound 376], the Activity result was “++ (activity>50% of CFTR amplifier+VX-809 (3 uM) with compound at 10 uM and Compound A at 3 uM)”.

For the compound `Cc1c(-c2cc(C(=O)[O-])c3c(O[C@@H](C)c4ccc(C5COC5)cc4)ccc(C)c3n2)oc2ccccc12.[Na+]` [Compound 286, Sodium 8-Methyl-2-(3-methyl-1-benzofuran-2-yl)-5-[(1S)-1-[4-(oxetan-3-yl)phenyl]ethoxy]quinoline-4-carboxylate], the Activity entry is “++ (activity>50% of CFTR amplifier+VX-809 (3 uM) with compound at 10 uM and Compound A at 3 uM)”.

`CCc1ccc(O[C@@H]2CCC[C@@H](C)C2)c2c(C(=O)[O-])cc(-c3sc4ccccc4c3C)nc12.[Na+]` [Compound 217, Sodium 8-Ethyl-2-(3-methyl-1-benzothiophen-2-yl)-5-[[(1R,3R)-3-methylcyclohexyl]oxy]quinoline-4-carboxylate]: the Activity entry was “++ (activity>50% of CFTR amplifier+VX-809 (3 uM) with compound at 10 uM and Compound A at 3 uM)”.

Turning to `COCC[C@H](Oc1ccc(C)c2nc(-c3sc4ccccc4c3C)cc(C(=O)[O-])c12)c1ccccc1.[Na+]` [Compound 312], the Activity entry is “++ (activity>50% of CFTR amplifier+VX-809 (3 uM) with compound at 10 uM and Compound A at 3 uM)”.

For `Cc1c(-c2cc(C(=O)O)c3cc(OCCO)cc(C)c3n2)oc2ccccc12` [Compound 25, 6-(2-Hydroxyethoxy)-8-methyl-2-(3-methyl-1-benzofuran-2-yl)quinoline-4-carboxylic Acid], the Activity result is “+ (activity<50% of an CFTR amplifier (Compound A)+VX-809 (3 uM) with compound at 10 uM and Compound A at 3 uM)”.

For `Cc1ccc(OCc2ccccc2)c2c(C(=O)O)cc(-c3cc4ccccc4s3)nc12` [Compound 34, 2-(1-Benzothiophen-2-yl)-5-(benzyloxy)-8-methylquinoline-4-carboxylic acid], the Activity entry was “++ (activity>50% of CFTR amplifier+VX-809 (3 uM) with compound at 10 uM and Compound A at 3 uM)”.

As for `Cc1c(-c2cc(C(=O)O)c3c(NCc4ccccc4)ccc(C)c3n2)oc2ccccc12` [Compound 116, 5-(Benzylamino)-8-methyl-2-(3-methyl-1-benzofuran-2-yl)quinoline-4-carboxylic Acid], the Activity entry is “++ (activity>50% of CFTR amplifier+VX-809 (3 uM) with compound at 10 uM and Compound A at 3 uM)”.

For `Cc1c(-c2cc(C(=O)[O-])c3c(O[C@@H]4CCC[C@H](C)C4)ccc(C)c3n2)sc2ccccc12.[Na+]` [Compound 218, Sodium 8-Methyl-2-(3-methyl-1-benzothiophen-2-yl)-5-[[(1R,3S)-3-methylcyclohexyl]oxy]quinoline-4-carboxylate], the Activity entry is “++ (activity>50% of CFTR amplifier+VX-809 (3 uM) with compound at 10 uM and Compound A at 3 uM)”.

Take `CCc1ccc(OCc2cccc([S+](C)[O-])c2)c2c(C(=O)O)cc(-c3oc4ccccc4c3C)nc12` (stereo not shown) [Compound 142, 8-Ethyl-5-[(3-methanesulfinylphenyl)methoxy]-2-(3-methyl-1-benzofuran-2-yl)quinoline-4-carboxylic Acid]: the Activity entry is “++ (activity>50% of CFTR amplifier+VX-809 (3 uM) with compound at 10 uM and Compound A at 3 uM)”.

In the case of `Cc1c(-c2cc(C(=O)O)c3cc(Cl)cc(C)c3n2)sc2ccccc12` [Compound 104, 6-Chloro-8-methyl-2-(3-methyl-1-benzothiophen-2-yl)quinoline-4-carboxylic acid], the Activity result is “++ (activity>50% of CFTR amplifier+VX-809 (3 uM) with compound at 10 uM and Compound A at 3 uM)”.
